Experimental data taken from paper PMC8146397 (Nanomaterials, 2021).
Where “and” joins values, the source holds several entries; their conditions need not be identical. Identical values can stand only once.

Assays:
[1] = In vivo pharmacokinetics after oral delivery (HPLC of plasma); conditions: mice
Description: Healthy mice weighing 30 g were kept in the primate facility with free access to food and water a day before the commencement of the experiment. The mice were divided into two groups (n = 5). […] Blood plasma was stored at −20 °C until further use.

[2] = tested on: Salmonella typhi strains; test: Antibacterial activity, CFU count / sterilization rate; assay type: cell-based; conditions: Salmonella typhi 3 × 10^4 cells/ml, 3 h at 37 °C, CFU after 18 h
Description: After incubation, solidified LB agar plat was impregnated with 100 μL of the bacterial suspension.

[3] = In vitro dissolution / CIP release at pH 5.0 for 72 h; assay type: physicochemical
[4] = release kinetic model Ct = C0 + k0t
[5] = release kinetic model Mi/M∞ = Kth + b
[6] = release kinetic model logQ0 + Kit/2.3

In the case of `O=C(O)c1cn(C2CC2)c2cc(N3CCNCC3)c(F)cc2c1=O` [CIP, Ciprofloxacin], the “AUMC 0-inf” value [1] was 900.65 μg/mL × h^2 and 900.65 ± 1.57 μg/mL × h^2, the Sterilizing rate [2] was 9 ± 3.25% and the “Zero Order K^0” value [3, 4] was 32.90. For the same compound, the “Zero Order R^2” value [3, 4] was 0.5787 ± 2.57, the “Korsmeyer-Peppas N (release exponent n)” value [3, 5] was 0.502 and the “Korsmeyer-Peppas R2” value [3, 5] was 0.9370 ± 4.85. For the same compound, the “Higuchi KH” value ([3]; release kinetic model Q = KH√t) was 53.70, the “Higuchi R2” value ([3]; release kinetic model Q = KH√t) was 0.9360 ± 3.57 and the “First Order K1” value [3, 6] was 0.877. The “First Order R^2” value [3, 6] was 0.9534 ± 1.57.
